These results are taken from patent publication US7323541B2, “Polypeptide DNA thereof and use of the same” (Takeda Pharmaceutical Company Limited, priority 2001, dated 2008).

Assay [1] has as its target T1, TGR23-1 expressing CHO cells (Homo sapiens, UniProt Q6W5P4).
T1 construct: the clones having the cDNA of TGR23-1, which is contained in pTB2173, were selected; expressed in transfected cells; host or cells: hamster CHO/dhfr- cells, vector pAKKO-111H (pAKKO-TGR23-1), clones No. 49 and No. 52
T1 sequence (Q6W5P4 1-371): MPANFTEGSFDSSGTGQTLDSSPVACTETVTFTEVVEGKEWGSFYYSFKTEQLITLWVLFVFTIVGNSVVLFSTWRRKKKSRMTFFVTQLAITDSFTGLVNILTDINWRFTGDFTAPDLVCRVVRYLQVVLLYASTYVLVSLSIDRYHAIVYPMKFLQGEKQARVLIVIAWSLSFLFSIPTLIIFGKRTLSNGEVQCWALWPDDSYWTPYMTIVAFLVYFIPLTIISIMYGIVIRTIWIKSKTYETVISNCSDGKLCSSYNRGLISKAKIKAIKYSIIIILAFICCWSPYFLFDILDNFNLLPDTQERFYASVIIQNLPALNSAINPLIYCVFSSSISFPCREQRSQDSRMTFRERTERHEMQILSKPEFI
Nature of the assay: Enhancing activity of intracellular cAMP production. Format: cell-based. As for the experimental part:
The CHO/TGR23-2 cells prepared in Example 1 and selected in Example 2 were plated on 24-well plate at 7×10^4 cells/well and cultured for 48 hours. The cells were washed with αMEM medium (pH7.5) containing 0.2 mM 3-isobutyl-methylxanthine, 0.05% BSA and 20 mM HEPES (hereafter, αMEM medium (pH7.5) containing 0.2 mM 3-isobutyl-methylxanthine, 0.05% BSA and 20 mM HEPES may be referred to as a reaction buffer). Subsequently, 0.5 ml of the reaction buffer was added, and the solution was incubated for 30 minutes in the incubator. The reaction buffer was removed and 0.25 ml of the reaction buffer was freshly added to the cells. Then, the cells were admixed with a sample and 0.25 ml of the reaction buffer containing 2 μM forskoline, and incubated at 37° C. for 30 minutes. Intracellular cAMP was extracted by removing the reaction solution and adding 0.5 ml of the solution for cell lysis attached with cAMP EIA Kit (Applied Biosystems). The cAMP level in the extract was quantified with the same kit. Based on this measured value, a calculation was made using the following formula, and the enhancing/inhibiting activity for cAMP production was represented by % of control. The activity of the sample-adding group was calculated using a control value configured in each plate. % of control=(X−C)/(T−C)×100
X: The cAMP level in the sample-adding group
T: The means of the cAMP level in 3 wells of positive control (no sample, with stimulus of forskoline)
C: The means of the cAMP level in 3 wells of negative control (no sample, without stimulus of forskoline)
Human TGR23-2 ligand (1-20) prepared by the method described in Example 17 was administered to TGR23-1 expressing CHO cells and TGR23-2 expressing CHO cells at a variety of concentrations according to the method described in Example 3, and the enhancing activity of intracellular cAMP production was determined. […]

Assay [2] has as its target T2, membrane fraction of TGR23-2 expressing CHO cells (Homo sapiens, UniProt Q6W5P4, N107I/Q344R).
T2 construct: the clones having the cDNA of TGR23-2, which is contained in pTB2174, were selected; expressed in transfected cells; host or cells: hamster CHO/dhfr- cells, vector pAKKO-111H (pAKKO-TGR23-2)
T2 sequence (Q6W5P4 1-371 N107I/Q344R): T1 sequence (Q6W5P4 1-371) with N107I, Q344R
Nature of the assay: GTPγS binding activity in membrane fraction. In kind it is biochemical. As for the experimental part:
Enhancing activity of binding of [^35S]-Guanosine 5′-(γ-thio) triphosphate in the membrane fraction of TGR23-2 expressing CHO cells was measured by the following method. Firstly, it is described about preparation of membrane fraction. Twenty (20) ml of homogenation buffer (10 mM HEPES (pH7.3), 5 mM EDTA, 0.52 mM PMSF, 10 μg/ml pepstatin, 8 μg/ml E64, 20 μg/ml leupeptin) was added to 8×10^7 of TGR23-2 expressing CHO cells, and the cells were disrupted using Polytron (12,000 rpm, 30 seconds×3 times). The cell-disrupted fluids were centrifuged (1,000 g for 15 minutes) to get supernatant. Subsequently the supernatant was ultracentrifuged (Beckman type 30 rotor, 30,000 rpm, one hour), and the precipitate obtained was collected as a membrane fraction of TGR23-2 expressing CHO cells. The GTPγS binding activity was assayed as follows. The membrane fraction of TGR23-2 expressing CHO cells was diluted with membrane dilution buffer (50 mM Tris-HCl buffer (pH7.4), 5 mM MgCl2, 150 mM NaCl, 0.03% NaN3, 0.1% BSA, 1 μM GDP) to get cell membrane fraction solution for assay at the protein concentration of […]. Two (2) μl of 50 nM [^35S]-guanosine 5′-(γ-thio) triphosphate (NEN) and sample were added to 200 μl of cell membrane fraction solution for assay, and the mixture was incubated at 25° C. for one (1) hour. The mixture was filtered, and the filter was washed twice with 1.5 ml of washing buffer (50 mM Tris-HCl buffer (pH7.4), 5 mM MgCl2, 1 mM EDTA, 0.03% NaN3, 0.1% BSA). Then the radioactivity on the filter was measured by liquid scintillation counter. Human TGR23-2 ligand (1-20) prepared by the method described in Example 17, rat TGR23-2 ligand (1-18) prepared by the method described in Example 19 and mouse TGR23-2 ligand (1-20) prepared by the method described in Example 20 were administered to TGR23-2 expressing CHO cells at a variety of concentrations according to the method described above, and the GTPγS binding activity was determined.

Assay [3] deals with T1, TGR23-1 expressing CHO cells. The experiment in a line: Enhancing activity of arachidonic acid metabolite release. In kind it is cell-based.

Residue numbers refer to the chain shown, from its start. Where no end group is shown, it is not given here.

“SFRNGVGTGMKKTSFQRAKS [human TGR23-2 ligand (1-20)]”: the results for the “enhancing activity of intracellular cAMP production” value in assay [1] (no forskolin) and in assay [1] (with forskolin) were “enhance the intracellular cAMP production” and “clearly enhances cAMP production”, respectively. Further, the GTPγS binding activity result in assay [2] is reported as “enhance the GTPγS binding activity”. In assay [3], the “enhancing activity of arachidonic acid metabolite release” value is listed as “enhance the arachidonic acid metabolite release”.
“SFRNGVGSGVKKTSFRRA [rat TGR23-2 ligand (1-18), Ser-Phe-Arg-Asn-Gly-Val-Gly-Ser-Gly-Val-Lys-Lys-Thr-Ser-Phe-Arg-Arg-Ala]”: the “enhancing activity of intracellular cAMP production” value in assay [1] (no forskolin) was “enhance the intracellular cAMP production”. In addition, in assay [2], the GTPγS binding activity entry is recorded as “enhance the GTPγS binding activity”. The “enhancing activity of arachidonic acid metabolite release” value in assay [3] was “enhance the arachidonic acid metabolite release”.
